Experiment: xn = mol fraction of the nth substance listed
Settings: 101 kPa, Liquid

OCCCCO [1,4-butanediol] + NC=O
Settings | speed of sound [m/s] | viscosity [mPa·s]
293.15 K, x2 = 0.1052 | 1606 | 64.53
293.15 K, x2 = 0.1988 | 1594.7 | 44
293.15 K, x2 = 0.3041 | 1585.7 | 30.1
293.15 K, x2 = 0.4002 | 1577.7 | 21.2
293.15 K, x2 = 0.5009 | 1572.5 | 15.13
293.15 K, x2 = 0.6022 | 1569.9 | 11.33
293.15 K, x2 = 0.6992 | 1574.7 | 7.998
293.15 K, x2 = 0.8051 | 1583.7 | 5.512
293.15 K, x2 = 0.905 | 1597.1 | 4.026
298.15 K, x2 = 0.1052 | 1592.6 | 48.08
298.15 K, x2 = 0.1988 | 1579.2 | 31.14
298.15 K, x2 = 0.3041 | 1568.5 | 19.82
298.15 K, x2 = 0.4002 | 1560.2 | 12.5
298.15 K, x2 = 0.5009 | 1553.9 | 8.021
298.15 K, x2 = 0.6022 | 1551.3 | 6.233
298.15 K, x2 = 0.6992 | 1556 | 4.971
298.15 K, x2 = 0.8051 | 1565.5 | 3.96
298.15 K, x2 = 0.905 | 1580.5 | 3.372
303.15 K, x2 = 0.1052 | 1580.1 | 38.03
303.15 K, x2 = 0.1988 | 1565.3 | 24.03
303.15 K, x2 = 0.3041 | 1553.4 | 13.42
303.15 K, x2 = 0.4002 | 1544.2 | 7.715
303.15 K, x2 = 0.5009 | 1537.7 | 4.771
303.15 K, x2 = 0.6022 | 1534.5 | 3.722
303.15 K, x2 = 0.6992 | 1539.5 | 3.062
303.15 K, x2 = 0.8051 | 1550 | 2.658
303.15 K, x2 = 0.905 | 1566.3 | 2.754
308.15 K, x2 = 0.1052 | 1568.8 | 30.12
308.15 K, x2 = 0.1988 | 1552 | 18.56
308.15 K, x2 = 0.3041 | 1539.2 | 9.498
308.15 K, x2 = 0.4002 | 1529.4 | 4.663
308.15 K, x2 = 0.5009 | 1522.1 | 2.696
308.15 K, x2 = 0.6022 | 1518.6 | 2.188
308.15 K, x2 = 0.6992 | 1524 | 1.87
308.15 K, x2 = 0.8051 | 1534.8 | 1.924
308.15 K, x2 = 0.905 | 1552.1 | 2.366
313.15 K, x2 = 0.1052 | 1558.4 | 23.74
313.15 K, x2 = 0.1988 | 1539.9 | 13.81
313.15 K, x2 = 0.3041 | 1525.4 | 6.541
313.15 K, x2 = 0.4002 | 1514.6 | 2.871
313.15 K, x2 = 0.5009 | 1506.5 | 1.619
313.15 K, x2 = 0.6022 | 1503 | 1.272
313.15 K, x2 = 0.6992 | 1508 | 1.079
313.15 K, x2 = 0.8051 | 1519.6 | 1.525
313.15 K, x2 = 0.905 | 1537.9 | 1.998
318.15 K, x2 = 0.1052 | 1546.2 | 18.95
318.15 K, x2 = 0.1988 | 1525.7 | 10.75
318.15 K, x2 = 0.3041 | 1510.2 | 5.094
318.15 K, x2 = 0.4002 | 1498.6 | 2.024
318.15 K, x2 = 0.5009 | 1490.6 | 1.167
318.15 K, x2 = 0.6022 | 1486.8 | 1.003
318.15 K, x2 = 0.6992 | 1491.7 | 0.9823
318.15 K, x2 = 0.8051 | 1503.8 | 1.242
318.15 K, x2 = 0.905 | 1524 | 1.706

NC=O [formamide] + CCC(C)O
Settings | speed of sound [m/s] | viscosity [mPa·s]
293.15 K, x1 = 0.1043 | 1264.1 | 4.14
293.15 K, x1 = 0.2043 | 1295.8 | 4.08
293.15 K, x1 = 0.3056 | 1329.1 | 4.046
293.15 K, x1 = 0.4083 | 1364.5 | 4.041
293.15 K, x1 = 0.5093 | 1401.3 | 4.026
293.15 K, x1 = 0.6063 | 1438.8 | 3.99
293.15 K, x1 = 0.7068 | 1480.1 | 3.929
293.15 K, x1 = 0.8042 | 1522.5 | 3.859
293.15 K, x1 = 0.9024 | 1568 | 3.77
298.15 K, x1 = 0.1043 | 1243.5 | 3.044
298.15 K, x1 = 0.2043 | 1274.8 | 3.064
298.15 K, x1 = 0.3056 | 1308 | 3.113
298.15 K, x1 = 0.4083 | 1343.4 | 3.19
298.15 K, x1 = 0.5093 | 1380.4 | 3.261
298.15 K, x1 = 0.6063 | 1418.1 | 3.31
298.15 K, x1 = 0.7068 | 1459.9 | 3.338
298.15 K, x1 = 0.8042 | 1503.4 | 3.351
298.15 K, x1 = 0.9024 | 1550.5 | 3.348
303.15 K, x1 = 0.1043 | 1225 | 2.516
303.15 K, x1 = 0.2043 | 1256.1 | 2.551
303.15 K, x1 = 0.3056 | 1289.2 | 2.617
303.15 K, x1 = 0.4083 | 1324.7 | 2.713
303.15 K, x1 = 0.5093 | 1361.9 | 2.8
303.15 K, x1 = 0.6063 | 1400 | 2.869
303.15 K, x1 = 0.7068 | 1442.6 | 2.918
303.15 K, x1 = 0.8042 | 1487.3 | 2.949
303.15 K, x1 = 0.9024 | 1536 | 2.966
308.15 K, x1 = 0.1043 | 1204.5 | 2.126
308.15 K, x1 = 0.2043 | 1235.7 | 2.167
308.15 K, x1 = 0.3056 | 1268.9 | 2.239
308.15 K, x1 = 0.4083 | 1304.5 | 2.339
308.15 K, x1 = 0.5093 | 1341.9 | 2.435
308.15 K, x1 = 0.6063 | 1380.6 | 2.512
308.15 K, x1 = 0.7068 | 1424.4 | 2.571
308.15 K, x1 = 0.8042 | 1470.5 | 2.611
308.15 K, x1 = 0.9024 | 1521 | 2.639
313.15 K, x1 = 0.1043 | 1185.6 | 1.802
313.15 K, x1 = 0.2043 | 1216.2 | 1.848
313.15 K, x1 = 0.3056 | 1249.3 | 1.927
313.15 K, x1 = 0.4083 | 1285.3 | 2.035
313.15 K, x1 = 0.5093 | 1323.1 | 2.138
313.15 K, x1 = 0.6063 | 1362.1 | 2.224
313.15 K, x1 = 0.7068 | 1406.8 | 2.291
313.15 K, x1 = 0.8042 | 1453.9 | 2.338
313.15 K, x1 = 0.9024 | 1506.1 | 2.375
318.15 K, x1 = 0.1043 | 1167.6 | 1.543
318.15 K, x1 = 0.2043 | 1197.6 | 1.593
318.15 K, x1 = 0.3056 | 1230.7 | 1.677
318.15 K, x1 = 0.4083 | 1266.9 | 1.791
318.15 K, x1 = 0.5093 | 1305 | 1.903
318.15 K, x1 = 0.6063 | 1344.2 | 1.998
318.15 K, x1 = 0.7068 | 1389.5 | 2.072
318.15 K, x1 = 0.8042 | 1437.6 | 2.129
318.15 K, x1 = 0.9024 | 1491.3 | 2.175

Reference: the NIST ThermoML archive (doi:10.1016/j.fluid.2007.12.007)
